Reference: patent US20240199676A1, “ANTIVIRAL COMPOUNDS AND METHODS OF MAKING AND USING THE SAME” (Gilead Sciences, Inc., priority 2022, published 2024)

Key:
[1] = GI S9 stability (Ex. Z), rat intestinal S9; format: in vitro ADME; settings: rat intestinal S9, 1.0 mg/mL protein, 2 μM substrate, pH 7.4, read-out: GIS9 Rat T½ (per Ex. Z)
Summary of the method: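 Pooled intestinal S9 at 1.0 mg/mL protein in PBS, pH 7.4, with substrate at 2 μM final, sampled at 0–120 min and quenched in methanol/acetonitrile containing labetalol. Remaining parent quantified by LC-MS peak area ratio. Half-life from first-order exponential decline fit.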

[2] = GI S9 stability (Ex. Z), human intestinal S9; format: in vitro ADME; settings: human intestinal S9, 1.0 mg/mL protein, 2 μM substrate, pH 7.4, read-out: GIS9 Human T½ (per Ex. Z)
Protocol: Example Z: GI S9 stability data:
Stock solutions of test compounds in dimethyl sulfoxide (DMSO) having a final concentration of 10 mM were prepared and used in all experiments. Sekisui XenoTech (Kansas City, KS) provided pooled intestinal S9 fractions. All other chemicals were purchased from Sigma-Aldrich (St. Louis, MO) or VWR (West Chester, PA). Internal Standard/Quench (IS/Q) used to stop reactions was 100 nM labetalol in (by volume) methanol (10%) and acetonitrile (90%).
Stability in Intestinal S9 Fractions: Duplicate aliquots of test compound or positive control substrate were added to S9 stock diluted with phosphate buffered saline (137 mM NaCl, 2.7 mM KCl, 10 mM phosphate buffer), pH 7.4, to obtain a protein concentration of 1.0 mg/mL. The metabolic reactions were initiated by the addition of the substrates to the S9 reaction mixture to a final concentration of 2 μM. At 0, 10, 20, 30, 60 and 120 min, 25 μL aliquots of the reaction mixture were transferred to plates containing 225 μl of IS/Q solution. After quenching, the plates were centrifuged at 3000×g for 30 minutes. 150 μL aliquots of each supernatant were dried down then reconstituted with 300 μL water. Aliquots (10 μL) of the prepared samples were analyzed on a Thermo Q-Exactive mass spectrometer as described below.
Liquid Chromatography—Mass Spectrometry: Quantification of test compounds and control substrate was performed by analyte/internal standard peak area ratio (PAR) values measured on a Thermo Q-Exactive mass spectrometer coupled to a Dionex UltiMate 3000 HPLC with a Leap Technologies HTC PAL autosampler. The column used for analysis was a Waters Acquity BEH C18 (1.7 μm particle size, 2.1×50 mm). Mobile phase A consisted of 0.1% (v/v) formic acid in water. Mobile phase B consisted of 0.1% (v/v) formic acid in acetonitrile. Elution of analytes was achieved by a series of linear gradients varying the proportions of A and B. The mass spectrometer was calibrated on a weekly basis and mass tolerance of 5 ppm was used.
Metabolic stabilities in S9 fractions were determined by measuring the rates of disappearance of test compound and positive control substrate.
Data (% of substrate remaining) were plotted on a semi-log scale and fitted using an exponential decline model:
Where Ct—% of substrate remaining at time=t; C0—% of substrate remaining at time=0; t—time; T½—half-life The Half-life (T½) is determined by the following equation: […]
Assuming a first-order reaction, the slope (k) is extrapolated from the aforementioned plotted data.

[3] = tested on: Respiratory syncytial virus recombinant with luciferase (RSV-Luc5) in NHBE cells; experiment: NHBE RSV-Luc5 384-well Assay (RSV FLUC NHBE 384 V2, Ex. W); format: cell-based; settings: human respiratory syncytial virus, 72 h, read-out: EC50 RSV FLUC NHBE 384 V2 (per Ex. W)
Summary of the method: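 NHBE cells (passage 2) seeded at 5,000 cells/well onto pre-spotted compounds, 10-point 1:3 dilutions, then infected with RSV-Luc5 at MOI 1. After 3 days at 37 °C, luciferase luminescence was read with One-Glo. Data normalized to remdesivir (0%) and DMSO (100% replication); EC50 from non-linear regression.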

SMILES | half-life at 2 μM ([1]; pooled intestinal S9 fractions) [min] | half-life at 2 μM ([2]; pooled intestinal S9 fractions) [min] | EC50 [3] [µM] | half-life at 2 μM [1] [min] | half-life at 2 μM [2] [min]
CC1(CC(=O)OC[C@@]2(C#N)O[C@@H](c3ccc4c(N)ncnn34)[C@H](O)[C@@H]2O)CCC1 [Compound 33, ((2R,3S,4R,5S)-5-(4-aminopyrrolo[2,1-f][1,2,4]triazin-7-yl)-2-cyano-3,4-dihydroxytetrahydrofuran-2-yl)methyl 2-(1-methylcyclobutyl)acetate] | 31 | 154 | 50 | – | –
CCC(C)(C)C(=O)OC[C@@]1(C#N)O[C@@H](c2ccc3c(N)ncnn23)[C@H](O)[C@@H]1O [Compound 35, ((2R,3S,4R,5S)-5-(4-aminopyrrolo[2,1-f][1,2,4]triazin-7-yl)-2-cyano-3,4-dihydroxytetrahydrofuran-2-yl)methyl 2,2-dimethylbutanoate] | 124 | 273 | 9.6 | – | –
CC(C)(C)CCC(=O)OC[C@@]1(C#N)O[C@@H](c2ccc3c(N)ncnn23)[C@H](O)[C@@H]1O [Compound 36, ((2R,3S,4R,5S)-5-(4-aminopyrrolo[2,1-f][1,2,4]triazin-7-yl)-2-cyano-3,4-dihydroxytetrahydrofuran-2-yl)methyl 4,4-dimethylpentanoate] | 3 | 11 | 10.8 | – | –
N#C[C@]1(COC(=O)Cc2ccccc2)O[C@@H](c2ccc3c(N)ncnn23)[C@H](O)[C@@H]1O [Compound 38, ((2R,3S,4R,5S)-5-(4-aminopyrrolo[2,1-f][1,2,4]triazin-7-yl)-2-cyano-3,4-dihydroxytetrahydrofuran-2-yl)methyl 2-phenylacetate] | – | – | 10.6 | 12 | 28
